The target of assay [1] is T1, Lysine-specific demethylase 4C (Homo sapiens, UniProt Q9H3R0).
T1 sequence (Q9H3R0 whole entry): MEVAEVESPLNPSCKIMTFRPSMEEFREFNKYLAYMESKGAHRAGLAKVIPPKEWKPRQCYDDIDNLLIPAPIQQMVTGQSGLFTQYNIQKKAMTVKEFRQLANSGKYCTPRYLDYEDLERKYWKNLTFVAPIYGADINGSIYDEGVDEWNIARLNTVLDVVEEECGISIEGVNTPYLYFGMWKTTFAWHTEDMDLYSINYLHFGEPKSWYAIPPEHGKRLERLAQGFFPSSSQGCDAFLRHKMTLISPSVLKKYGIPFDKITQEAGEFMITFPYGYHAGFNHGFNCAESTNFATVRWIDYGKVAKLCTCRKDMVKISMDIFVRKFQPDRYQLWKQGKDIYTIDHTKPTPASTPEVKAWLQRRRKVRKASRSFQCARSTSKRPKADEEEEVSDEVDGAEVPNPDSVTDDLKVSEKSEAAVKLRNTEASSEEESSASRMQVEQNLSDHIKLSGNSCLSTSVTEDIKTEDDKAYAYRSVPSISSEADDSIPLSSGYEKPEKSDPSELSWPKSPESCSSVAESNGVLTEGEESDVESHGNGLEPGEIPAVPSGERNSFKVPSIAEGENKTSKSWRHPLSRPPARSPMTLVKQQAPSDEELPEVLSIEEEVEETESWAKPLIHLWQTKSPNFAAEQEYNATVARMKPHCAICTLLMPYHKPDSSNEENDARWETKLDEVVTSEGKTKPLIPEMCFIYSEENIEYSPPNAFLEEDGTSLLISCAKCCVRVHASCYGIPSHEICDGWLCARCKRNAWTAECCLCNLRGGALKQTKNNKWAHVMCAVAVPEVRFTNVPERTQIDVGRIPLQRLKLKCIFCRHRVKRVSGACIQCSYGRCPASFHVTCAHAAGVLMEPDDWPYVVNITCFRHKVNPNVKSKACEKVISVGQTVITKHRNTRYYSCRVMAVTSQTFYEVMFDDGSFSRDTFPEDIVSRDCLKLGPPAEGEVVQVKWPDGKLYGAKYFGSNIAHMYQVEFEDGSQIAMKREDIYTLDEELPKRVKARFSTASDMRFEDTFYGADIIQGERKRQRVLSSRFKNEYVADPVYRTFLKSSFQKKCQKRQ

Assay [2] addresses T2, Lysine-specific demethylase 4B (Homo sapiens, UniProt O94953).
T2 sequence (O94953 whole entry): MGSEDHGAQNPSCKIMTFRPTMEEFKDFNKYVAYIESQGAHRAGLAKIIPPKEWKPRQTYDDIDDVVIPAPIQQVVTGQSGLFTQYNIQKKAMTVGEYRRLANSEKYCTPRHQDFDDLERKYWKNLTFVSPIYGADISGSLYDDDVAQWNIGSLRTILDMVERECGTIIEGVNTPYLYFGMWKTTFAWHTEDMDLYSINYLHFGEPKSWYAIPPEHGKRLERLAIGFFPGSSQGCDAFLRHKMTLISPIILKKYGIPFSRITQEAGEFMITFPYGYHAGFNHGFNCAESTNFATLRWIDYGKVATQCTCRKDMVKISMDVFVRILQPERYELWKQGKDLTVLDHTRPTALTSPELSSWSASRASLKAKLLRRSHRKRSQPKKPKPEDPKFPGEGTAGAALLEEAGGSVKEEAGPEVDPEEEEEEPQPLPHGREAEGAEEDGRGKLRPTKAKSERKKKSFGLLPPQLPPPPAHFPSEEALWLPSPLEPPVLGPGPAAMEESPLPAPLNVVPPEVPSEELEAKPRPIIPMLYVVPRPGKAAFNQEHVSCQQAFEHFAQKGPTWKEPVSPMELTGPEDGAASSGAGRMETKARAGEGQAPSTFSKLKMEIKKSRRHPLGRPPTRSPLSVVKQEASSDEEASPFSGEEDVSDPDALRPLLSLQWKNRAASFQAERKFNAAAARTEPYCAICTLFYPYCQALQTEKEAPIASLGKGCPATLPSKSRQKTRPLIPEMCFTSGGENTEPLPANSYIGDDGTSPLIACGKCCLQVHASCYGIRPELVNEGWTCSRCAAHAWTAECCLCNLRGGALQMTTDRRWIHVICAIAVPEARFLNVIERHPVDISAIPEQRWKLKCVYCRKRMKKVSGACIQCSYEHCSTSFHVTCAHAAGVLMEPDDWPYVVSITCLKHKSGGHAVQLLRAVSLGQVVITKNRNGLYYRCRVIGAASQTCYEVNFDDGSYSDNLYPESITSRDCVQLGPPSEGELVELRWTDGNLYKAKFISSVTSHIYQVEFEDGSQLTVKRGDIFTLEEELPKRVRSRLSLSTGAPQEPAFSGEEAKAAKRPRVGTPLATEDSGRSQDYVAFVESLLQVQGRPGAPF
The assay is described as follows: Inhibition of human N-terminal GST-tagged KDM4B (1 to 500 residues) expressed in baculovirus infected sf9 cells using biotinylated histone H3 as substrate preincubated for 10 mins followed by substrate addition measured after 10 mins by AlphaLisa assay.

In assay [3] the target is Lysine-specific demethylase 6B (Homo sapiens, UniProt O15054). The assay is described as follows: biochemical.
Assay [4] concerns the target Lysine-specific demethylase 6A (Homo sapiens, UniProt O15550).

Where only a bound is given, the exact number is not on record here.

Chain of Lysine-specific demethylase 6B (O15054 whole entry): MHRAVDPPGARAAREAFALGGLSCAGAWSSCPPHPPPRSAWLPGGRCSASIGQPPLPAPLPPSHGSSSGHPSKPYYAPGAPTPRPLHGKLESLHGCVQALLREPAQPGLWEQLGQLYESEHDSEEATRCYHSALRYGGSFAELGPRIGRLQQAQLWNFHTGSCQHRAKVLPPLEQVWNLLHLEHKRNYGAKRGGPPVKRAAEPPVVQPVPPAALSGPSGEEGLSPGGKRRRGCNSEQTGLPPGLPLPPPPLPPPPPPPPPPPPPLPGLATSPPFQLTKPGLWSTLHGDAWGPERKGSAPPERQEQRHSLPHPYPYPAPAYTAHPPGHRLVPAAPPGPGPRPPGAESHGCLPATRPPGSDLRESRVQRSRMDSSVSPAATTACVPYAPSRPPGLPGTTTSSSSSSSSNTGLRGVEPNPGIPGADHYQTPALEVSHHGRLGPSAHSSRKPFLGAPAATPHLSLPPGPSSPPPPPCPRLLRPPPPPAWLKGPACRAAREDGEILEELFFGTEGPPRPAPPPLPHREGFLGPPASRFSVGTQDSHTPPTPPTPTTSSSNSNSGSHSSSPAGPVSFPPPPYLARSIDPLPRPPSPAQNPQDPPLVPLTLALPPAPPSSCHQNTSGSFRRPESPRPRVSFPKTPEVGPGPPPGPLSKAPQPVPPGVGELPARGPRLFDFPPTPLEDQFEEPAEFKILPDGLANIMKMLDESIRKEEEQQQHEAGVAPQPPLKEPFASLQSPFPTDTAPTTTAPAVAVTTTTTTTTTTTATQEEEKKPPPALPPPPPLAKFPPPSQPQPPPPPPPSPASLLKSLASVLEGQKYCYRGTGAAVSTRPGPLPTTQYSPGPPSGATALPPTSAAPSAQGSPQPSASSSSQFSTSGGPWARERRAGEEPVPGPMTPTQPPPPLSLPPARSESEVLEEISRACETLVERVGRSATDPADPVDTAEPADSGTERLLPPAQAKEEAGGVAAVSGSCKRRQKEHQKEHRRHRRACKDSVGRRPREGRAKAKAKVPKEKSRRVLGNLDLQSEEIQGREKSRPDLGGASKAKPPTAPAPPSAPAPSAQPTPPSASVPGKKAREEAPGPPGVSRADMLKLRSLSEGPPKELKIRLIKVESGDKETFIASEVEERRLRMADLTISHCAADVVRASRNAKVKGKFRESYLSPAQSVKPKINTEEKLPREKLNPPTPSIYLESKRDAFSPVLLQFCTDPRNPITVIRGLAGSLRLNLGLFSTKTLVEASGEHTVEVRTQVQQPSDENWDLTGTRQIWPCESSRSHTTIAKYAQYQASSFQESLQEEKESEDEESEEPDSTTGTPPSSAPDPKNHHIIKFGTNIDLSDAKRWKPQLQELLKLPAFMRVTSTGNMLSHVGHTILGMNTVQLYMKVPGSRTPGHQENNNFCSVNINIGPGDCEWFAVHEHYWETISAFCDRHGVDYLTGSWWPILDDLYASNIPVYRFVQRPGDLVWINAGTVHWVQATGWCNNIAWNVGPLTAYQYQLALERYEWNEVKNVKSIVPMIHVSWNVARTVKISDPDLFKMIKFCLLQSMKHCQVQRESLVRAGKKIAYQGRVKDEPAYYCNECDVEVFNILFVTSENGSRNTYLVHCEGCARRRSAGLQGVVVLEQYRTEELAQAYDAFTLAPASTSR
Chain of Lysine-specific demethylase 6A (O15550 whole entry): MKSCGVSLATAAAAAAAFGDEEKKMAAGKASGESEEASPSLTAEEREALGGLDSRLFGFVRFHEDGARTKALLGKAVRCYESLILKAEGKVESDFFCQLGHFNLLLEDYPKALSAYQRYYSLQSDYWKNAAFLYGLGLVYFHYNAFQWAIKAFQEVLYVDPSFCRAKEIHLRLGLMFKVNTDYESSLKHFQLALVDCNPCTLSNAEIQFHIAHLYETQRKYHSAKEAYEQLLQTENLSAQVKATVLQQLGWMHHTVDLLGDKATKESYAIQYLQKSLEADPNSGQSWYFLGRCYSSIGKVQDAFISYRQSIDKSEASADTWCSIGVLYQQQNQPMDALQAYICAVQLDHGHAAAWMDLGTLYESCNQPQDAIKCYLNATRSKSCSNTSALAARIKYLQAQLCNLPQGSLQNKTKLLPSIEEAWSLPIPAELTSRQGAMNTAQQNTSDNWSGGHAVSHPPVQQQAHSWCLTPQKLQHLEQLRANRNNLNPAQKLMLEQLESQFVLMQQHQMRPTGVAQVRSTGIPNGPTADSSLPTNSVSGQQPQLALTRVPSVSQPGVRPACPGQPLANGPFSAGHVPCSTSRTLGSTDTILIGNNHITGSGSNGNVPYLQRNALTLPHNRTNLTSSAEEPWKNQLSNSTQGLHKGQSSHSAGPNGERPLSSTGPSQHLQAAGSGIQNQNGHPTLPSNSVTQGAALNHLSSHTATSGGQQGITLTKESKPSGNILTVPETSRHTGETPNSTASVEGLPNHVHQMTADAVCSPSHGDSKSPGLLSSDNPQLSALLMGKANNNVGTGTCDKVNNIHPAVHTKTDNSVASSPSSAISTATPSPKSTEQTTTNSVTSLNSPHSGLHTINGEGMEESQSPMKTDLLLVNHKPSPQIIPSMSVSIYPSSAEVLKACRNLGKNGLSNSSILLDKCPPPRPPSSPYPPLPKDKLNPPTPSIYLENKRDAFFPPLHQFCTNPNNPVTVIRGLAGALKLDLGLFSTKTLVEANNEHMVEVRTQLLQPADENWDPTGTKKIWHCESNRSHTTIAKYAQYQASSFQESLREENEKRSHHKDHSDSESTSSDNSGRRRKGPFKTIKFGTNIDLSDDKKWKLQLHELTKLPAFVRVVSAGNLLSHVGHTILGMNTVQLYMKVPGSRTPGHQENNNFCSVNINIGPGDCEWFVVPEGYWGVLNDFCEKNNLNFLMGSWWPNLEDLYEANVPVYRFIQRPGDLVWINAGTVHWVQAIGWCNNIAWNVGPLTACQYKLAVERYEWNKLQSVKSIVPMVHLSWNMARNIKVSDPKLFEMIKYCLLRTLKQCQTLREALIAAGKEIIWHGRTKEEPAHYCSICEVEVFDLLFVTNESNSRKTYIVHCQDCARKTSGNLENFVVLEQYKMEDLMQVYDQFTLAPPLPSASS

On to `CCN(CCN(C)C)C(=O)CNCc1cc(CNC(=O)C(F)(F)F)ccn1`, for which the IC50 in assay [1], in assay [2], in assay [3] and in assay [4] was above 2500 nM each time.
With `CCN(CC)CCCCNCc1cc(C=O)ccn1`, the IC50 in assay [1] was above 2500 nM; in assay [2] it was below 250 nM; in assay [3], above 2500 nM; in assay [4], above 2500 nM.
For `CCN(CCN(C)C)C(=O)CNCc1cc(C(=O)O)ccn1`, the IC50 in assay [1] is below 100 nM; in assay [2], below 100 nM; in assay [3], above 1000 nM; in assay [4], above 1000 nM.

The values are drawn from ChEMBL document CHEMBL3784917, “Recent Progress in Histone Demethylase Inhibitors” (J Med Chem, 2016).
